Laboratory results: patent US20220242872A1, “E3 LIGASE BINDERS AND USES THEREOF” (DANA-FARBER CANCER INSTITUTE, INC., priority 2019, published 2022)
“Also recorded” adds a separate entry of the source.

Assays:
IKZF3 = target: T1, IKZF3 (Homo sapiens, UniProt Q96SW2+Q9UKT9); assay: 24 hour IKZF Western Blot in Jurkat cells (FIG. 5), IKZF3; assay type: cell-based
T1 construct: endogenous in cells; host or cells: Jurkat
Method: (§1) Exemplary close analogues had low activity against CRBN (FIG. 4). For the IKZF Western Blot, the cell is Jurkat, the exemplary compounds for treatment are JADA3, 32, 53, and lenalidomide, and the time point is 24 hours (FIG. 5).
(§2) Conditions for Western blot:
(§3) Jurkat cells were seeded in 6 well plates, followed by the compound treatment for 24 hours. Primary and secondary antibodies used included anti-IKZF1 at 1:1000 dilution, anti-IKZF2 at 1:1,000 dilution, anti-IKZF3 at 1:1000 dilution, anti-ACTIN at 1:5,000 dilution, IRDye®680 Donkey anti-mouse at 1:5,000 dilution (926-68072, LiCor®, Lot: C61116-05) and IRDye®800 Goat anti-rabbit at 1:5,000 dilution (926-32211, LiCor®, Lot: C70301-05).

CRBN [1] = target: T2, CRBN (Homo sapiens, UniProt Q96SW2); assay: Assay for CRBN binding in the cell, 24 hours treatment (FIG. 3); assay type: cell-based; parameters: endogenous in cells; details: 293T WT cells (legend also says Jurkat WT)
T2 sequence (Q96SW2 whole entry): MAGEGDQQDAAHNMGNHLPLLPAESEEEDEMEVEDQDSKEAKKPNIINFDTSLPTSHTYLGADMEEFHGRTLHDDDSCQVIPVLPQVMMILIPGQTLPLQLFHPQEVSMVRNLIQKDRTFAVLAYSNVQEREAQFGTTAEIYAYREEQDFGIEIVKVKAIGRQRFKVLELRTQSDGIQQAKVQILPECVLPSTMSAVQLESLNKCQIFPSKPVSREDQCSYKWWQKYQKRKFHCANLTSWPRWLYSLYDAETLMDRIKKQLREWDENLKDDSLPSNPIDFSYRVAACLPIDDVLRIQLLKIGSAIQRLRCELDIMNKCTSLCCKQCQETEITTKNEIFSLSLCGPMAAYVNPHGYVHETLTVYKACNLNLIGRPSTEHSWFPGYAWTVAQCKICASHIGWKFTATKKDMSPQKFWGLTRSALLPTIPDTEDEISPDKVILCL
Method: (§4) The results of an assay for CRBN binding (and degradation of IKZF or actin) upon treatment for 24 hours with exemplary compounds Qi-01-68, JADA53, and positive control lenalidomide (at the indicated concentrations in μM) in 293T WT cells (homo sapiens kidney cell line; wild type) are shown in FIG. 3.

CRBN [2] = target: T2, CRBN; assay: CRBN Fluorescence Polarization (FP) displacement assay; assay type: binding; parameters: His6 (N); details: displacement of Atto565-lenalidomide from DDB1ΔB-CRBN; FIGS. 1, 4, 6A, 7
Method: Conditions for CRBN Fluorescence Polarization (FP) displacement assay: Atto565-conjugated lenalidomide (10 nM) was mixed with increasing concentration of purified his6-DDB1AB-his6—CRBN (10 μM final top concentration, 2-fold, 23-point dilution and DMSO control) in 384-well microplates (Corning, 4514) and incubated for 15 minutes (min) at room temperature (rt). The change in fluorescence polarization was monitored using a PHERAstar® FS microplate reader (BMG Labtech) for 20 min in 120 s cycles. The Atto565-lenalidomide bound fraction was calculated and the Kd was obtained from a fit in GraphPad Prism 7. Compounds in Atto565-Lenalidomide displacement assay were dispensed in a 384-well microplate (Corning®, 4514) using D300e Digital Dispenser (HP) normalized to 2% DMSO into 10 nM Atto565-Leanlidomide, 100 nM DDB1ΔB-CRBN, 50 mM Tris pH 7.5, 200 mM NaCl, 0.1% Pluronic® F-68 solution (Sigma), 0.5 mg/ml BSA (Sigma) containing 2% DMSO (4% DMSO final). The change in fluorescence polarization was monitored using a PHERAstar® FS microplate reader (BMG Labtech) for 20 min in 200 s cycles. IC50 values estimated using variable slope equation in GraphPad Prism 7.

IKZF1 [3] = target: T3, IKZF1 (Homo sapiens, UniProt Q13422+Q96SW2); assay: 24 hour IKZF Western Blot in Jurkat cells (FIG. 5), IKZF1; assay type: cell-based; parameters: endogenous in cells; host or cells: Jurkat
T3 sequence (Q13422 whole entry): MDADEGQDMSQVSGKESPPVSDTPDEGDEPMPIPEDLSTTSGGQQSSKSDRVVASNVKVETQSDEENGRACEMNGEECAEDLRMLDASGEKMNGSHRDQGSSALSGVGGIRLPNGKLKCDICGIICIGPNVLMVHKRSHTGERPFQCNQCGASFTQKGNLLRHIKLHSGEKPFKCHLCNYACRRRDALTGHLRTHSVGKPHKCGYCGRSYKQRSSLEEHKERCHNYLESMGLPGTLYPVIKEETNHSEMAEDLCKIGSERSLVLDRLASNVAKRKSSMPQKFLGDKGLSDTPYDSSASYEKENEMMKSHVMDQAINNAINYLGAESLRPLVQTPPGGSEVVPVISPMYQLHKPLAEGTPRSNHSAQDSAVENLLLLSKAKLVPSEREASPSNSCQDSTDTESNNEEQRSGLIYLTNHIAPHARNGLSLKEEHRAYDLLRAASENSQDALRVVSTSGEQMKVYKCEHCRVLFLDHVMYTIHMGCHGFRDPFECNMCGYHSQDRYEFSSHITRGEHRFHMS
T3 sequence (Q96SW2 whole entry): as the sequence (Q96SW2 whole entry) above
T3 sequence (Q16531 whole entry partner): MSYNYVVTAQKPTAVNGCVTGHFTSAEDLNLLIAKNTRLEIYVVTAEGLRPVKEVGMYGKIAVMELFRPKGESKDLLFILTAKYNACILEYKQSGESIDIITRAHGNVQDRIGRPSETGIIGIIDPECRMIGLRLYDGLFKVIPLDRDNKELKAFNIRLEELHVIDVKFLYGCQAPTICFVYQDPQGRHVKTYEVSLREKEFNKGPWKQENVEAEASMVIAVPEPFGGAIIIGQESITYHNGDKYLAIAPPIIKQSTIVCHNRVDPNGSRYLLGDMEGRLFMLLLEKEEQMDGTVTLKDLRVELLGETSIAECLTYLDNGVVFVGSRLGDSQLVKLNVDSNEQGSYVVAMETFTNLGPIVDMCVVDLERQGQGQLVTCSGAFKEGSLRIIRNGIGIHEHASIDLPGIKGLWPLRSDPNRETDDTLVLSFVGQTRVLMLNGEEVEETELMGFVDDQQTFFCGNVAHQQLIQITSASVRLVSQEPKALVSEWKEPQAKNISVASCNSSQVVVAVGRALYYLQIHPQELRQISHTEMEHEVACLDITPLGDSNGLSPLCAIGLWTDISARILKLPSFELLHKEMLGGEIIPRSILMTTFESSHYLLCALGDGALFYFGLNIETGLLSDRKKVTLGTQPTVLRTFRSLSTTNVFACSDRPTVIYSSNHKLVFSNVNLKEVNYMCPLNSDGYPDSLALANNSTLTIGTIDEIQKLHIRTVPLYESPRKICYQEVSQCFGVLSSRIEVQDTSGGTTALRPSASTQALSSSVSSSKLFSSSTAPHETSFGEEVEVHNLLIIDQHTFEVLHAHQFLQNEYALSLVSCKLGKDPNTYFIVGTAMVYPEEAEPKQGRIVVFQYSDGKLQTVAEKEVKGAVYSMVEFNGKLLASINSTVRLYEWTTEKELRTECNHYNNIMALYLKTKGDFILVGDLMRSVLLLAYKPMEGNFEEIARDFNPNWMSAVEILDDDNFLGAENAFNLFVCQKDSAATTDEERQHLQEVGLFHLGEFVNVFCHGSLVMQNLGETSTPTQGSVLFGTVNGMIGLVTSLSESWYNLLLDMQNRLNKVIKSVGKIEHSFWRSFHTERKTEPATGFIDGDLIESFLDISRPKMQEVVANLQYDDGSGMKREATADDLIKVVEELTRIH
Method: as §1, §2, §3

IKZF1 [4] = target: T3, IKZF1; assay: Degradation of IKZF upon 24 hours treatment (FIG. 3); assay type: cell-based; parameters: endogenous in cells; details: 293T WT cells (legend also says Jurkat WT)
Method: as §4

T1 sequence (Q9UKT9 whole entry): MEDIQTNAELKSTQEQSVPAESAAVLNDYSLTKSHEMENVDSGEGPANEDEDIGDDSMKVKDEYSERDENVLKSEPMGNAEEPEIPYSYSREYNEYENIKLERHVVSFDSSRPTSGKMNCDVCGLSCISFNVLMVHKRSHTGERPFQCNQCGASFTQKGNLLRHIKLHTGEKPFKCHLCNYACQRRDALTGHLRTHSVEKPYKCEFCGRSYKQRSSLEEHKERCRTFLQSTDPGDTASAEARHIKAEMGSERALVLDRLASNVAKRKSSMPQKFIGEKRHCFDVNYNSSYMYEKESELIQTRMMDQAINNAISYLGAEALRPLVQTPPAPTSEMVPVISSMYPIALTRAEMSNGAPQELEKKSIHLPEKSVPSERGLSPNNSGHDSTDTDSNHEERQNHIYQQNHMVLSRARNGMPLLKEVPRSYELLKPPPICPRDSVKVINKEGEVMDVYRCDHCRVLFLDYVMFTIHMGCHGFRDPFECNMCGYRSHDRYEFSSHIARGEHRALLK
T1 sequence (Q96SW2 whole entry): as the sequence (Q96SW2 whole entry) above
T1 sequence (Q16531 whole entry partner): as the sequence (Q16531 whole entry partner) above

degradation of IKZF3 in cells (Western Blot) (IKZF3): degraded
binding of target CRBN in the cell (CRBN [1]): good binding
CRBN binding activity (FP displacement) (CRBN [2]): binds CRBN
degradation of IKZF1 in cells (Western Blot) (IKZF1 [3]): degraded
SMILES: Cc1[nH]c2c(-c3cnn(-c4cc(OCCN)ccn4)c3)cnn2c(=O)c1C(C)C [JADA53]
degradation of IKZF / IKZF1 in cell (IKZF1 [4]): can degrade IKZF; also recorded: degraded IKZF
